# Assay results reported in patent publication US20230295200A1 (REGENTS OF THE UNIVERSITY OF MICHIGAN, priority 2022, published 2023).
# Tests used:
# STAT5A = target: T1, STAT5A (Homo sapiens, UniProt P42229); experiment: Fluorescence polarization (FP) binding assay, STAT5A; settings: FP competition, 5 nM fluorescein-labeled tracer, 200 nM protein, PBS pH7.4
# T1 sequence (P42229 1-794): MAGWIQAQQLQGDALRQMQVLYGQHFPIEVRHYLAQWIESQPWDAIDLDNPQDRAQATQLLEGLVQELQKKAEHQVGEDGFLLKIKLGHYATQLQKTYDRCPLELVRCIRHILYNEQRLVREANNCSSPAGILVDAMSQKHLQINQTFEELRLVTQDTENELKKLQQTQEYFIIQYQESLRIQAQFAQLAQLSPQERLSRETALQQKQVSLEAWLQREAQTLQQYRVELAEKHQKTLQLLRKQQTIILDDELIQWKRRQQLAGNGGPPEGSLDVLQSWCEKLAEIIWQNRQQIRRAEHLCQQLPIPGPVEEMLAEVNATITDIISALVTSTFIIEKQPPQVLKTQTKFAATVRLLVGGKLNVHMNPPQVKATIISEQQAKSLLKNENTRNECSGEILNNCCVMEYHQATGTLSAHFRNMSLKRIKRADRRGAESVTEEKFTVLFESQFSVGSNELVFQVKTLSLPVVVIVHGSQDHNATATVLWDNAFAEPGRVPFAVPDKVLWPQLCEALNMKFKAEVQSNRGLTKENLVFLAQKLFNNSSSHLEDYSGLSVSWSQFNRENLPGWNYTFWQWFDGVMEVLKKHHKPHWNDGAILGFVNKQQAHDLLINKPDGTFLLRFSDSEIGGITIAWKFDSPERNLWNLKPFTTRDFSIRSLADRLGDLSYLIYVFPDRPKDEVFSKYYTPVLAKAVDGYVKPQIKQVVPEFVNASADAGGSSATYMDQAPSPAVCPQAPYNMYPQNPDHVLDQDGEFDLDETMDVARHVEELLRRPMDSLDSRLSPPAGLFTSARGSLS
# Method in brief: (§1)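 Polarization of a 5 nM fluorescein tracer bound by 200 nM STAT protein, measured after 1 h room-temperature equilibration in buffered PBS pH 7.4 with DTT, gave inhibition constants via nonlinear curve fitting.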
# STAT6 protein = target: T2, STAT6 protein (Homo sapiens, UniProt P42226); experiment: Fluorescence polarization (FP) binding assay, STAT6; settings: FP competition, 5 nM fluorescein-labeled tracer, 200 nM protein, PBS pH7.4; read-out: Binding STAT6
# T2 sequence (P42226 1-847): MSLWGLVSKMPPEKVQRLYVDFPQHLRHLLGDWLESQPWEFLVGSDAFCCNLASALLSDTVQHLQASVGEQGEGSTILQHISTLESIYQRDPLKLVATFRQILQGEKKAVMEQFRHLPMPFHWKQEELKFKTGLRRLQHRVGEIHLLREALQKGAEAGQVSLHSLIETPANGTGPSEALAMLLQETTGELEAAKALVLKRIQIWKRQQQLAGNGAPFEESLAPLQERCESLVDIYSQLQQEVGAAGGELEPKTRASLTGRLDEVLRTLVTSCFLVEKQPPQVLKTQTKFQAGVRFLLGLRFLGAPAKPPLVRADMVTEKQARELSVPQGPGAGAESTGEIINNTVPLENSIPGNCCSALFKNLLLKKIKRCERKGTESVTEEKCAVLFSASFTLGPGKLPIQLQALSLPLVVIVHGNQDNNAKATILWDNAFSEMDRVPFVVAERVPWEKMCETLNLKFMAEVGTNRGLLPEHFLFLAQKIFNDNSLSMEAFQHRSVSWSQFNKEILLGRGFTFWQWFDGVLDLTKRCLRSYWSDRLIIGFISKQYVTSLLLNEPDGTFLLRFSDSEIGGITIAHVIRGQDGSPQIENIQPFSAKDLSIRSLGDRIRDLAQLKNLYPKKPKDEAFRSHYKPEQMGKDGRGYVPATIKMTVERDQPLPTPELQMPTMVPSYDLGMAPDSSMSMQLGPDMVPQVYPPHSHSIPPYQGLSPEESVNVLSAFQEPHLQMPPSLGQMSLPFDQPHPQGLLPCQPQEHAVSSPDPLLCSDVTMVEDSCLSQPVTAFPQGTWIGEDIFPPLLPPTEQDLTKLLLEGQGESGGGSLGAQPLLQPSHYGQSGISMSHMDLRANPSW
# Method in brief: as §1
SMILES,Ki (STAT5A) [nM],Ki (STAT6 protein) [nM]
"CC(C)(C)[C@H](NC(=O)c1cc2cc(C(F)(F)P(=O)(O)O)ccc2s1)C(=O)N1CCC[C@H]1C(=O)N1CCS(=O)(=O)[C@H](c2ccccc2)C1 [Compound 135, ((2-(((S)-1-((S)-2-((R)-1,1-dioxido-2-phenylthiomorpholine-4-carbonyl)pyrrolidin-1-yl)-3,3-dimethyl-1-oxobutan-2-yl)carbamoyl)benzo[b]thiophen-5-yl)difluoromethyl)phosphonic acid]",1000 to 10000,100 to 1000
"CC(C)(C)[C@H](NC(=O)c1cc2cc(C(F)(F)P(=O)(O)O)ccc2s1)C(=O)N1CCC[C@H]1C(=O)N1CCS(=O)(=O)[C@@H](c2ccccc2)C1 [Compound 136, ((2-(((S)-1-((S)-2-((S)-1,1-dioxido-2-phenylthiomorpholine-4-carbonyl)pyrrolidin-1-yl)-3,3-dimethyl-1-oxobutan-2-yl)carbamoyl)benzo[b]thiophen-5-yl)difluoromethyl)phosphonic acid]",1000 to 10000,100 to 1000
"CC(C)(C)[C@H](NC(=O)c1cc2cc(C(F)(F)P(=O)(O)O)ccc2s1)C(=O)N1CCC[C@H]1C(=O)N1CCC(O)C(c2ccccc2)C1 (stereo partly drawn) [Compound 137, (difluoro(2-(((2S)-1-((2S)-2-(4-hydroxy-3-phenylpiperidine-1-carbonyl)pyrrolidin-1-yl)-3,3-dimethyl-1-oxobutan-2-yl)carbamoyl)benzo[b]thiophen-5-yl)methyl)phosphonic acid]",> 10000,1000 to 10000
"CC(C)(C)[C@H](NC(=O)c1cc2cc(C(F)(F)P(=O)(O)O)ccc2s1)C(=O)N1CCC[C@H]1C(=O)N1CCOC(c2ccccn2)C1 (stereo partly drawn) [Compound 140, ((2-(((2S)-3,3-dimethyl-1-oxo-1-((2S)-2-(2-(pyridin-2-yl)morpholine-4-carbonyl)pyrrolidin-1-yl)butan-2-yl)carbamoyl)benzo[b]thiophen-5-yl)difluoromethyl)phosphonic acid]",> 10000,100 to 1000
"CC(C)(C)[C@H](NC(=O)c1cc2cc(C(F)(F)P(=O)(O)O)ccc2s1)C(=O)N1Cc2ccccc2C1C(=O)N1CCO[C@H](c2ccccc2)C1 (stereo partly drawn) [Compound 141, ((2-(((2S)-3,3-dimethyl-1-oxo-1-(1-((R)-2-phenylmorpholine-4-carbonyl)isoindolin-2-yl)butan-2-yl)carbamoyl)benzo[b]thiophen-5-yl)difluoromethyl)phosphonic acid]",1000 to 10000,100 to 1000
"CC(C)(C)[C@H](NC(=O)c1cc2cc(C(F)(F)P(=O)(O)O)ccc2s1)C(=O)N1Cc2ccccc2C1C(=O)N1CCO[C@@H](c2ccccc2)C1 (stereo partly drawn) [Compound 142, ((2-(((2S)-3,3-dimethyl-1-oxo-1-(1-((S)-2-phenylmorpholine-4-carbonyl)isoindolin-2-yl)butan-2-yl)carbamoyl)benzo[b]thiophen-5-yl)difluoromethyl)phosphonic acid]",> 10000,1000 to 10000
"CCC(CC)[C@H](NC(=O)c1cc2cc(C(F)(F)P(=O)(O)O)ccc2s1)C(=O)N1CCC[C@H]1C(=O)N1CCO[C@H](c2ccccc2)C1 [Compound 144, ((2-(((S)-3-ethyl-1-oxo-1-((S)-2-((R)-2-phenylmorpholine-4-carbonyl)pyrrolidin-1-yl)pentan-2-yl)carbamoyl)benzo[b]thiophen-5-yl)difluoromethyl)phosphonic acid]",1000 to 10000,100 to 1000
"CC(C)(C)[C@H](NC(=O)c1ccc2cc(C(F)(F)P(=O)(O)O)ccc2c1)C(=O)N1CCC[C@H]1C(=O)N1CCO[C@H](c2ccccc2)C1 [Compound 145, ((6-(((S)-3,3-dimethyl-1-oxo-1-((S)-2-((R)-2-phenylmorpholine-4-carbonyl)pyrrolidin-1-yl)butan-2-yl)carbamoyl)naphthalen-2-yl)difluoromethyl)phosphonic acid]",> 10000,100 to 1000
"CC[C@H](NC(=O)c1cc2cc(C(F)(F)P(=O)(O)O)ccc2s1)C(=O)N1CCC[C@H]1C(=O)N1CCO[C@H](c2ccccc2)C1 [Compound 146, (difluoro(2-(((S)-1-oxo-1-((S)-2-((R)-2-phenylmorpholine-4-carbonyl)pyrrolidin-1-yl)butan-2-yl)carbamoyl)benzo[b]thiophen-5-yl)methyl)phosphonic acid]",1000 to 10000,100 to 1000
"C#CC[C@H](NC(=O)c1cc2cc(C(F)(F)P(=O)(O)O)ccc2s1)C(=O)N1CCC[C@H]1C(=O)N1CCO[C@H](c2ccccc2)C1 [Compound 147, (difluoro(2-(((S)-1-oxo-1-((S)-2-((R)-2-phenylmorpholine-4-carbonyl)pyrrolidin-1-yl)pent-4-yn-2-yl)carbamoyl)benzo[b]thiophen-5-yl)methyl)phosphonic acid]",> 10000,100 to 1000
"O=C(N[C@H](C(=O)N1CCC[C@H]1C(=O)N1CCO[C@H](c2ccccc2)C1)C1CC1)c1cc2cc(C(F)(F)P(=O)(O)O)ccc2s1 [Compound 148, ((2-(((S)-1-cyclopropyl-2-oxo-2-((S)-2-((R)-2-phenylmorpholine-4-carbonyl)pyrrolidin-1-yl)ethyl)carbamoyl)benzo[b]thiophen-5-yl)difluoromethyl)phosphonic acid]",1000 to 10000,100 to 1000
"CC(C)(O)[C@H](NC(=O)c1cc2cc(C(F)(F)P(=O)(O)O)ccc2s1)C(=O)N1CCC[C@H]1C(=O)N1CCO[C@H](c2ccccc2)C1 [Compound 149, (difluoro(2-(((S)-3-hydroxy-3-methyl-1-oxo-1-((S)-2-((R)-2-phenylmorpholine-4-carbonyl)pyrrolidin-1-yl)butan-2-yl)carbamoyl)benzo[b]thiophen-5-yl)methyl)phosphonic acid]",> 10000,100 to 1000
"CCC(CC)[C@H](NC(=O)c1cc2cc(C(F)(F)P(=O)(O)O)ccc2s1)C(=O)N1CCC[C@H]1C(=O)N1CCO[C@@H](c2ccccc2)C1 [Compound 150, ((2-(((S)-3-ethyl-1-oxo-1-((S)-2-((S)-2-phenylmorpholine-4-carbonyl)pyrrolidin-1-yl)pentan-2-yl)carbamoyl)benzo[b]thiophen-5-yl)difluoromethyl)phosphonic acid]",> 10000,1000 to 10000
"CC(C)(C)[C@H](NC(=O)c1ccc2cc(C(F)(F)P(=O)(O)O)ccc2c1)C(=O)N1CCC[C@H]1C(=O)N1CCO[C@@H](c2ccccc2)C1 [Compound 151, ((6-(((S)-3,3-dimethyl-1-oxo-1-((S)-2-((S)-2-phenylmorpholine-4-carbonyl)pyrrolidin-1-yl)butan-2-yl)carbamoyl)naphthalen-2-yl)difluoromethyl)phosphonic acid]",> 10000,1000 to 10000
"CCC[C@H](NC(=O)c1cc2cc(C(F)(F)P(=O)(O)O)ccc2s1)C(=O)N1CCC[C@H]1C(=O)N1CCO[C@@H](c2ccccc2)C1 [Compound 152, (difluoro(2-(((S)-1-oxo-1-((S)-2-((S)-2-phenylmorpholine-4-carbonyl)pyrrolidin-1-yl)pentan-2-yl)carbamoyl)benzo[b]thiophen-5-yl)methyl)phosphonic acid]",> 10000,1000 to 10000
"C#CC[C@H](NC(=O)c1cc2cc(C(F)(F)P(=O)(O)O)ccc2s1)C(=O)N1CCC[C@H]1C(=O)N1CCO[C@@H](c2ccccc2)C1 [Compound 153, (difluoro(2-(((S)-1-oxo-1-((S)-2-((S)-2-phenylmorpholine-4-carbonyl)pyrrolidin-1-yl)pent-4-yn-2-yl)carbamoyl)benzo[b]thiophen-5-yl)methyl)phosphonic acid]",> 10000,1000 to 10000
